Measurements taken from ChEMBL document CHEMBL4033749, “Synthesis and biological evaluation of 5-fatty-acylamido-1, 3, 4-thiadiazole-2-thioglycosides” (Bioorg Med Chem Lett, 2017).
pIC50: −log10 of the molar value. ≈ marks a conversion by molar mass, not a printed value. Calls of active or inactive are those of the source. No cut-off for these calls is given here.

Assays:
[1] = test system: DU-145; assay: Cytotoxicity against human DU145 cells incubated for 24 hrs by MTT asasy; type: functional, cell-based; conditions: for pIC50: Homo sapiens, DU-145, 24 h, read-out: IC50; for IC50: du-145
[2] = test system: SK-OV-3; assay: Cytotoxicity against human SKOV3 cells incubated for 24 hrs by MTT asasy; type: functional, cell-based; conditions: for IC50: sk-ov-3
[3] = test system: Escherichia coli; assay: Antibacterial activity Escherichia coli MTCC 443 by agar well method; type: functional
[4] = test system: Staphylococcus epidermidis; assay: Antibacterial activity Staphylococcus epidermidis MTCC 9041 by agar well method; type: functional
[5] = test system: MDA-MB-231; assay: Cytotoxicity against human MDA-MB-231 cells incubated for 24 hrs by MTT asasy; type: functional, cell-based; conditions: Homo sapiens, MDA-MB-231, 24 h; read-out: IC50
[6] = test system: CHO-K1; assay: Cytotoxicity against CHOK1 cells incubated for 24 hrs by MTT asasy; type: cell-based, Cricetulus griseus; conditions: for pIC50: Cricetulus griseus, CHO-K1, 24 h, read-out: IC50; for IC50: cho-k1
[7] = test system: Pseudomonas aeruginosa; assay: Antibacterial activity Pseudomonas aeruginosa MTCC 1688 by agar well method; type: functional
[8] = test system: HeLa; assay: Cytotoxicity against human HeLa cells incubated for 24 hrs by MTT asasy; type: functional, cell-based; conditions: Homo sapiens, HeLa, 24 h; read-out: IC50
[9] = test system: Bacillus subtilis; assay: Antibacterial activity Bacillus subtilis MTCC 441 by agar well method; type: functional
[10] = test system: Staphylococcus aureus; assay: Antibacterial activity Staphylococcus aureus MTCC 96 by agar well method; type: functional
[11] = test system: Klebsiella pneumoniae; assay: Antibacterial activity Klebsiella pneumoniae MTCC 618 by agar well method; type: functional

Row | SMILES | MIC [3] | MIC [4] | MIC [7] | MIC [9] | MIC [10] | MIC [11] | pIC50 [1] | IC50 [2] | pIC50 [5] | pIC50 [6] | pIC50 [8] | IC50 [1] | IC50 [6] | pIC50 ([2]; Homo sapiens, SK-OV-3, 24 h, read-out: IC50)
1 | CCCCCCCCCC(=O)Nc1nnc(S[C@@H]2O[C@H](COC(C)=O)[C@H](OC(C)=O)[C@H](OC(C)=O)[C@H]2OC(C)=O)s1 | inactive | inactive | inactive | inactive | inactive | inactive | 4.46 | Not Active | 4.72 | 4.71 | 4.35 | – | – | –
2 | CCCCCCCCCCCCCCCCCC(=O)Nc1nnc(S[C@@H]2O[C@H](COC(C)=O)[C@H](OC(C)=O)[C@H](OC(C)=O)[C@H]2OC(C)=O)s1 | inactive | inactive | inactive | inactive | inactive | inactive | 4.51 | Not Active | 4.63 | 4.35 | 4.01 | – | – | –
3 | CCCCCCCCCCCCCCCC(=O)Nc1nnc(S[C@@H]2O[C@H](COC(C)=O)[C@H](OC(C)=O)[C@H](OC(C)=O)[C@H]2OC(C)=O)s1 | inactive | inactive | inactive | inactive | inactive | inactive | 4.52 | Not Active | 4.60 | 4.04 | 4.23 | – | – | –
4 | CCCCCCCCCCCCCC(=O)Nc1nnc(S[C@@H]2O[C@H](CO)[C@H](O)[C@H](O)[C@H]2O)s1 | > 150 µg/mL | > 150 µg/mL | > 150 µg/mL | 50 µg/mL (≈ 98.9 µM) | > 150 µg/mL | 25 µg/mL (≈ 49.4 µM) | – | Not Active | 4.48 | – | 4.51 | Not Active | Not Active | –
5 | CCCCCCCC(=O)Nc1nnc(S[C@@H]2O[C@H](COC(C)=O)[C@H](OC(C)=O)[C@H](OC(C)=O)[C@H]2OC(C)=O)s1 | inactive | inactive | inactive | inactive | inactive | inactive | – | Not Active | 4.72 | 4.72 | 4.36 | Not Active | – | –
6 | CCCCCCCC/C=C\CCCCCCCCCCCC(=O)Nc1nnc(S[C@@H]2O[C@H](CO)[C@H](O)[C@H](O)[C@H]2O)s1 | > 150 µg/mL | > 150 µg/mL | > 150 µg/mL | > 150 µg/mL | > 150 µg/mL | > 150 µg/mL | – | Not Active | 4.15 | – | 4.87 | Not Active | Not Active | –

More lines, main results first:

Row | MIC [3] | MIC [4] | MIC [7] | MIC [9] | MIC [10] | MIC [11] | SMILES | pIC50 [1] | IC50 [2] | pIC50 [5] | pIC50 [6] | pIC50 [8] | IC50 [1] | IC50 [6] | pIC50 ([2]; Homo sapiens, SK-OV-3, 24 h, read-out: IC50)
7 | > 150 µg/mL | > 150 µg/mL | > 150 µg/mL | > 150 µg/mL | > 150 µg/mL | > 150 µg/mL | CCCCCCCCCCCCCCCCCC(=O)Nc1nnc(S[C@@H]2O[C@H](CO)[C@H](O)[C@H](O)[C@H]2O)s1 | – | Not Active | 4.17 | – | 4.95 | Not Active | Not Active | –
8 | inactive | inactive | inactive | inactive | inactive | inactive | CCCCCCCC/C=C\CCCCCCCC(=O)Nc1nnc(S[C@@H]2O[C@H](COC(C)=O)[C@H](OC(C)=O)[C@H](OC(C)=O)[C@H]2OC(C)=O)s1 | 4.38 | Not Active | 4.63 | 4.58 | 4.26 | – | – | –
9 | > 150 µg/mL | > 150 µg/mL | > 150 µg/mL | > 150 µg/mL | > 150 µg/mL | > 150 µg/mL | CCCCCCCC(=O)Nc1nnc(S[C@@H]2O[C@H](CO)[C@H](O)[C@H](O)[C@H]2O)s1 | – | – | 4.51 | 4.22 | 4.29 | Not Active | – | 4.25
10 | > 150 µg/mL | > 150 µg/mL | > 150 µg/mL | > 150 µg/mL | > 150 µg/mL | > 150 µg/mL | CCCCCCCC/C=C\CCCCCCCC(=O)Nc1nnc(S[C@@H]2O[C@H](CO)[C@H](O)[C@H](O)[C@H]2O)s1 | – | Not Active | 4.36 | – | 5.06 | Not Active | Not Active | –
11 | inactive | inactive | inactive | inactive | inactive | inactive | CCCCCC(=O)Nc1nnc(S[C@@H]2O[C@H](COC(C)=O)[C@H](OC(C)=O)[C@H](OC(C)=O)[C@H]2OC(C)=O)s1 | – | Not Active | 4.60 | 4.61 | 4.70 | Not Active | – | –
12 | inactive | inactive | inactive | inactive | inactive | inactive | CCCCCCCC/C=C\CCCCCCCCCCCC(=O)Nc1nnc(S[C@@H]2O[C@H](COC(C)=O)[C@H](OC(C)=O)[C@H](OC(C)=O)[C@H]2OC(C)=O)s1 | 4.55 | Not Active | 4.60 | 4.60 | 4.23 | – | – | –
13 | > 150 µg/mL | > 150 µg/mL | > 150 µg/mL | > 150 µg/mL | > 150 µg/mL | > 150 µg/mL | C=CCCCCCCCCC(=O)Nc1nnc(S[C@@H]2O[C@H](CO)[C@H](O)[C@H](O)[C@H]2O)s1 | – | Not Active | 4.09 | – | 4.23 | Not Active | Not Active | –
14 | > 150 µg/mL | > 150 µg/mL | > 150 µg/mL | > 150 µg/mL | > 150 µg/mL | > 150 µg/mL | CCCCCC(=O)Nc1nnc(S[C@@H]2O[C@H](CO)[C@H](O)[C@H](O)[C@H]2O)s1 | – | Not Active | 4.54 | – | 4.34 | Not Active | Not Active | –
